Legend:
[1] = target: T1, 5-hydroxytryptamine receptor 1A (Homo sapiens, UniProt P08908); assay: Displacement of [3H]8-OH-DPAT from human 5-HT1A assessed as inhibition constant
T1 sequence (P08908 whole entry): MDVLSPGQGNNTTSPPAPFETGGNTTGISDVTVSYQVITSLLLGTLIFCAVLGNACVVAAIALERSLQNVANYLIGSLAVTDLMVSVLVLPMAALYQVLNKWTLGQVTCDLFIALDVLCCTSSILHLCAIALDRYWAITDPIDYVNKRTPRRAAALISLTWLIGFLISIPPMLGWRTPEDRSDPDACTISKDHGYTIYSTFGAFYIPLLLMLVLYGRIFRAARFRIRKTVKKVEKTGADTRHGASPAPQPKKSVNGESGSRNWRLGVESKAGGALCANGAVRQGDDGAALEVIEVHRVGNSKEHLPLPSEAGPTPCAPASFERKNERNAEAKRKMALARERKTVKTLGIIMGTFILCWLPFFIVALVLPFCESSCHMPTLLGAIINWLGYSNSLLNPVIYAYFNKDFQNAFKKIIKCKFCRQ

[2] = target: 5-hydroxytryptamine receptor 7 (Rattus norvegicus, UniProt P32305); assay: Displacement of [3H]5-HT from rat 5-HT7 assessed as inhibition constant
[3] = Inhibition of neuronal excitability in mouse Primary neocortical neuron assessed as reduction in SCO amplitude measured after 45 mins by FLIPR assay; format: functional, cell-based; settings: 0.75 h
[4] = Inhibition of neuronal excitability in mouse Primary neocortical neuron assessed as reduction in SCO frequency measured after 45 mins by FLIPR assay; format: functional, cell-based; settings: 0.75 h

Chain of 5-hydroxytryptamine receptor 7 (P32305 whole entry): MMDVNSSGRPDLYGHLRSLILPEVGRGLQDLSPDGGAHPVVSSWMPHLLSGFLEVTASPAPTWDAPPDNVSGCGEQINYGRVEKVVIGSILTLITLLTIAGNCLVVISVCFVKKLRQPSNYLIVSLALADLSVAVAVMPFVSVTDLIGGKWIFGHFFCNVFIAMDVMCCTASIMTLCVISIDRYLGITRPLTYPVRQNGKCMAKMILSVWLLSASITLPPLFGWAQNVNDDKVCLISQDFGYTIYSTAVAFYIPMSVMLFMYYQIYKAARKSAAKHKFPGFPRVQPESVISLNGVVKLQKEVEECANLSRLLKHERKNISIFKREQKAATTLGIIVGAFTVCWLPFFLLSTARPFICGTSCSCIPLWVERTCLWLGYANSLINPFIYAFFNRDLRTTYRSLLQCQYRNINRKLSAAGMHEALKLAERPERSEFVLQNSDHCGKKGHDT

For `CN1CCc2ccc3c4c2[C@H]1Cc1cccc(c1-4)[C@]3(C)O`, the Ki [1] was 0.0615 µM and the Ki [2] was 0.0069 µM.

Compound `COc1ccc2c(c1O)-c1c3c(cc4c1[C@H](C2)N(C)CC4)OCO3` [(S)-BULBOCAPNINE] has an IC50 [3] of 12.9 µM and an IC50 [4] of 11.6 µM.
